Measurements reported in the supplement of paper PMC8671470.

Legend:
Test in all cases: cell viability (% survival relative to DMSO control); higher = less cytotoxic
Details in all cases: 72 h
HL-60 = test system: HL-60
Procedure: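 8x8 drug-combination matrices (0-5000 nM; rosiglitazone and lestaurtinib 0-1000 nM) were run in HL-60 cells for 72 h with a CellTiter-Glo read-out. Survival is normalised to DMSO and 10 µM bortezomib and clipped at 100%. Bliss synergy was analysed in SynergyFinder.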

Mono-Mac-6 = test system: Mono-Mac-6
Procedure: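 8x8 drug-combination matrices (0–5000 nM; rosiglitazone and lestaurtinib 0–1000 nM) were run in Mono-Mac-6 cells for 72 h with CellTiter-Glo read-out. Survival is normalised to DMSO and 10 µM bortezomib and clipped at 100%.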

MV4-11 = test system: MV4-11
Procedure: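 8x8 drug-combination matrices (0–5000 nM; rosiglitazone and lestaurtinib 0–1000 nM) were run in MV4-11 cells for 72 h with CellTiter-Glo read-out. Survival is normalised to DMSO and 10 µM bortezomib and clipped at 100%.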

O=C(C1CC1)N1CC[C@@H](C=C2NNC(=O)N2c2ccc(-c3ccc4occc4c3)cc2)C1 + O=C(c1c2ccccc2cc2ccccc12)N1CCC(N2CCC[C@@H](C(=O)N3CCOCC3)C2)CC1 [CP-640186]
cell viability [%]
Details | drug1 concentration 5 nM | drug1 concentration 10 nM | drug1 concentration 50 nM | drug1 concentration 100 nM | drug1 concentration 500 nM | drug1 concentration 1000 nM | drug1 concentration 5000 nM
HL-60, drug2 concentration 5 nM | 79.6 | > 100 | 88.2 | 88.2 | 60 | 71.7 | 88.2
HL-60, drug2 concentration 10 nM | 96.6 | 97.7 | 86.2 | 86.2 | 91.2 | 72 | 64.5
HL-60, drug2 concentration 50 nM | 90 | 95.2 | 82.5 | 88 | 81.8 | 68.2 | 74.1
HL-60, drug2 concentration 100 nM | 88 | 90 | 78.2 | 90.5 | 74.4 | 63.6 | 72.3
HL-60, drug2 concentration 500 nM | 86.2 | 88.5 | 75.1 | 91.1 | 70.5 | 57.8 | 71.1
HL-60, drug2 concentration 1000 nM | 84 | 84.2 | 70.3 | 75.1 | 61.5 | 56.3 | 79.2
HL-60, drug2 concentration 5000 nM | 77.2 | 79.4 | 72 | 74.6 | 52.4 | 53.7 | 66.5
MV4-11, drug2 concentration 5 nM | 95.4 | 96.1 | 93.4 | 98.1 | 97.2 | 100 | > 100
MV4-11, drug2 concentration 10 nM | 89.8 | > 100 | > 100 | > 100 | > 100 | > 100 | 88.2
MV4-11, drug2 concentration 50 nM | > 100 | 98.5 | > 100 | > 100 | 83.6 | > 100 | > 100
MV4-11, drug2 concentration 100 nM | 98.3 | > 100 | > 100 | > 100 | > 100 | > 100 | > 100
MV4-11, drug2 concentration 500 nM | > 100 | 91 | 88.9 | 90.1 | > 100 | > 100 | 97.5
MV4-11, drug2 concentration 1000 nM | > 100 | 97.9 | 98.6 | > 100 | > 100 | > 100 | > 100
MV4-11, drug2 concentration 5000 nM | 98.1 | 86 | 96.1 | > 100 | 91.9 | 86.4 | 92.3
Mono-Mac-6, drug2 concentration 5 nM | 77.8 | > 100 | 88.2 | 84.8 | 85.5 | 88.8 | > 100
Mono-Mac-6, drug2 concentration 10 nM | > 100 | > 100 | > 100 | 90.7 | 81.2 | > 100 | 63.7
Mono-Mac-6, drug2 concentration 50 nM | 99.3 | 89.7 | > 100 | > 100 | > 100 | > 100 | > 100
Mono-Mac-6, drug2 concentration 100 nM | 87.7 | > 100 | > 100 | 99.8 | > 100 | 91.2 | 87.4
Mono-Mac-6, drug2 concentration 500 nM | 95.2 | 87 | 87.4 | 86.2 | > 100 | > 100 | 79.5
Mono-Mac-6, drug2 concentration 1000 nM | 88.8 | > 100 | > 100 | 84.9 | > 100 | 98.8 | 99.4
Mono-Mac-6, drug2 concentration 5000 nM | > 100 | 70.2 | 98.1 | 99.4 | 81.6 | 72.4 | > 100

CC(C)c1onc(-c2c(Cl)cccc2Cl)c1COc1ccc(/C=C/c2cccc(C(=O)O)c2)c(Cl)c1 [GW4064] + Cn1cc(-c2ccncc2)c(-c2ccc(OCc3ccc4ccccc4n3)cc2)n1 [PF-02545920]
cell viability [%]
Details | drug1 concentration 5 nM | drug1 concentration 10 nM | drug1 concentration 50 nM | drug1 concentration 100 nM | drug1 concentration 500 nM | drug1 concentration 1000 nM | drug1 concentration 5000 nM
HL-60, drug2 concentration 5 nM | > 100 | 98.6 | > 100 | > 100 | > 100 | > 100 | 78.8
HL-60, drug2 concentration 10 nM | > 100 | > 100 | > 100 | > 100 | 97 | > 100 | 89.8
HL-60, drug2 concentration 50 nM | > 100 | > 100 | > 100 | > 100 | > 100 | 68.7 | > 100
HL-60, drug2 concentration 100 nM | 81.7 | > 100 | 88.4 | 76.3 | > 100 | > 100 | 53.4
HL-60, drug2 concentration 500 nM | > 100 | 65.9 | > 100 | > 100 | > 100 | > 100 | > 100
HL-60, drug2 concentration 1000 nM | 97.1 | > 100 | > 100 | > 100 | > 100 | 46.6 | > 100
HL-60, drug2 concentration 5000 nM | > 100 | > 100 | > 100 | > 100 | > 100 | 89.8 | > 100
MV4-11, drug2 concentration 5 nM | 90.6 | > 100 | > 100 | 95.2 | > 100 | 90.8 | 90.2
MV4-11, drug2 concentration 10 nM | > 100 | > 100 | 91 | 99.5 | 94.5 | > 100 | 95.5
MV4-11, drug2 concentration 50 nM | > 100 | > 100 | > 100 | > 100 | > 100 | 53.1 | 96.7
MV4-11, drug2 concentration 100 nM | 97.4 | > 100 | > 100 | 96.7 | > 100 | > 100 | 89.1
MV4-11, drug2 concentration 500 nM | > 100 | 96.2 | > 100 | > 100 | 70.1 | > 100 | 77.9
MV4-11, drug2 concentration 1000 nM | > 100 | > 100 | 97.2 | 91.1 | 95.5 | 80.8 | 73.6
MV4-11, drug2 concentration 5000 nM | 48.9 | 54 | 49.3 | 53.3 | 54.9 | 50.4 | 46.4
Mono-Mac-6, drug2 concentration 5 nM | > 100 | > 100 | > 100 | 85.7 | 80.4 | 88.9 | > 100
Mono-Mac-6, drug2 concentration 10 nM | 92.5 | > 100 | 79.3 | 78.5 | 87.6 | 94.3 | 99.8
Mono-Mac-6, drug2 concentration 50 nM | > 100 | > 100 | > 100 | 86 | 97.2 | 66.9 | 99.9
Mono-Mac-6, drug2 concentration 100 nM | > 100 | 90.5 | > 100 | 86.8 | > 100 | > 100 | 82.2
Mono-Mac-6, drug2 concentration 500 nM | 81.2 | 69.3 | > 100 | > 100 | 94.8 | 87.9 | > 100
Mono-Mac-6, drug2 concentration 1000 nM | 93.3 | > 100 | 77.2 | 98.6 | 96.1 | 89.8 | 81.4
Mono-Mac-6, drug2 concentration 5000 nM | 74.5 | 91.6 | 65 | 76.7 | 96.5 | 85.1 | 87.7
